According to ChEMBL document CHEMBL1201862, “PubChem BioAssay data set” (2004):
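Cultured in 96-well plates, cells were exposed to test compound for 48 hours across five concentrations. At the GI50, growth is halved.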 Calls of active or inactive are those of the source. Rule as the data show it: active = GI50 up to about 1.1 µM and inactive = higher.

Assays:
Test in all cases: NCI anticancer screen, dose series, 48 h
[1] = system: HCC 2998
[2] = system: HL-60
[3] = system: K562
[4] = system: LOX IMVI
[5] = system: NCI-H226
[6] = system: NCI-H23
[7] = system: OVCAR-4
[8] = system: OVCAR-5
[9] = system: SF-268
[10] = system: SF-539
[11] = system: SNB-19
[12] = system: SNB-75
[13] = system: SR
[14] = system: UACC-257
[15] = system: UO-31
[16] = system: CAKI-1

Row | Compound | GI50 [1] | GI50 [2] | GI50 [3] | GI50 [4] | GI50 [5] | GI50 [6] | GI50 [7] | GI50 [8] | GI50 [9] | GI50 [10] | GI50 [11] | GI50 [12] | GI50 [13] | GI50 [14] | GI50 [15] | GI50 [16]
1 | COc1ccc(-c2cc(O)c3ccc(F)cc3n2)cc1 | > 100 µM (inactive) | > 100 µM (inactive) | > 100 µM (inactive) | > 100 µM (inactive) | > 100 µM (inactive) | > 100 µM (inactive) | > 100 µM (inactive) | > 100 µM (inactive) | 23.5 µM (inactive) | > 100 µM (inactive) | > 100 µM (inactive) | > 100 µM (inactive) | > 100 µM (inactive) | > 100 µM (inactive) | > 100 µM (inactive) | –
2 | CCCCCC(O)(CCCCC)CCCCCCCCC1=C(O)C(=O)c2ccc(=O)[nH]c2C1=O | 14.5 µM (inactive) | 4.92 µM (inactive) | 5.07 µM (inactive) | 11.7 µM (inactive) | 8.36 µM (inactive) | 2.61 µM (inactive) | 1.87 µM (inactive) | 20.3 µM (inactive) | 5.02 µM (inactive) | 7.6 µM (inactive) | 5.48 µM (inactive) | 17.5 µM (inactive) | 27.3 µM (inactive) | 3.64 µM (inactive) | 13.3 µM (inactive) | 11.2 µM (inactive)
3 | Cc1cc(NCCCCCCCCNc2cc(C)nc3cc(N(C)C)ccc23)c2ccc(N(C)C)cc2n1 | 4.3 µM (inactive) | 0.711 µM (active) | 0.881 µM (active) | 2.37 µM (inactive) | – | 1.43 µM (inactive) | 4.88 µM (inactive) | – | 3.48 µM (inactive) | 3.23 µM (inactive) | 3.09 µM (inactive) | – | 2.82 µM (inactive) | 3.94 µM (inactive) | 75.5 µM (inactive) | 24.3 µM (inactive)
4 | CCCCCCCCCCCCCCCCCCCCCC(=O)Nc1ccn(C2OC(CO)C(O)C2O)c(=O)n1 (stereo not drawn) | > 100 µM (inactive) | 10 µM (inactive) | > 50.6 µM (inactive) | 9.89 µM (inactive) | > 100 µM (inactive) | 3.1 µM (inactive) | > 100 µM (inactive) | > 61 µM (inactive) | 18.4 µM (inactive) | > 100 µM (inactive) | > 57 µM (inactive) | > 83.6 µM (inactive) | 1.67 µM (inactive) | > 100 µM (inactive) | 32.1 µM (inactive) | > 31.6 µM (inactive)
5 | O=C1CCCC2COc3ccc(O)c1c32 (stereo not drawn) | > 100 µM (inactive) | > 100 µM (inactive) | > 100 µM (inactive) | – | > 100 µM (inactive) | > 100 µM (inactive) | > 100 µM (inactive) | > 100 µM (inactive) | > 100 µM (inactive) | > 100 µM (inactive) | > 100 µM (inactive) | > 100 µM (inactive) | > 100 µM (inactive) | > 100 µM (inactive) | > 100 µM (inactive) | –
6 | COc1ccccc1/C=C/C(=O)c1sc(-c2cccnc2)nc1C | > 100 µM (inactive) | > 100 µM (inactive) | > 100 µM (inactive) | > 100 µM (inactive) | > 100 µM (inactive) | > 100 µM (inactive) | – | > 100 µM (inactive) | > 100 µM (inactive) | > 100 µM (inactive) | – | 22.8 µM (inactive) | – | > 100 µM (inactive) | > 100 µM (inactive) | > 100 µM (inactive)
7 | NNC(=O)C(=O)N/N=C1\CCC(=O)CC1C(=O)CCC(=O)Nc1ccc(Cl)cc1 (stereo not drawn) | > 100 µM (inactive) | > 100 µM (inactive) | > 100 µM (inactive) | > 100 µM (inactive) | > 100 µM (inactive) | > 100 µM (inactive) | > 100 µM (inactive) | > 100 µM (inactive) | > 100 µM (inactive) | > 100 µM (inactive) | > 100 µM (inactive) | 39.4 µM (inactive) | – | > 100 µM (inactive) | > 100 µM (inactive) | > 100 µM (inactive)
8 | Clc1cccc2c1OCC1C(c3ccccc3)=NN(c3ccccc3)C21 (stereo not drawn) | > 100 µM (inactive) | 31.8 µM (inactive) | 28.9 µM (inactive) | 39.7 µM (inactive) | – | > 100 µM (inactive) | – | > 100 µM (inactive) | 63.2 µM (inactive) | – | 96.4 µM (inactive) | > 100 µM (inactive) | – | 67.3 µM (inactive) | 60.8 µM (inactive) | –
9 | C/C(=C1/N=C(c2cc([N+](=O)[O-])ccc2Cl)N(c2ccc(Br)cc2)C1=O)c1ccc(N(CCC#N)CCC#N)cc1C | 32.1 µM (inactive) | 16.2 µM (inactive) | 7.78 µM (inactive) | 7.5 µM (inactive) | > 100 µM (inactive) | 42.7 µM (inactive) | 38.8 µM (inactive) | 50.9 µM (inactive) | 61.7 µM (inactive) | 52.2 µM (inactive) | 19.8 µM (inactive) | > 100 µM (inactive) | 7.98 µM (inactive) | 57.5 µM (inactive) | 24.7 µM (inactive) | 52.4 µM (inactive)
10 | FC(F)(F)c1cccc(C2SCc3nc4ccccc4n32)c1 (stereo not drawn) | > 100 µM (inactive) | 5.75 µM (inactive) | 8.61 µM (inactive) | – | > 100 µM (inactive) | 9.79 µM (inactive) | – | 6.32 µM (inactive) | 90.6 µM (inactive) | 26.6 µM (inactive) | 51.3 µM (inactive) | 29.8 µM (inactive) | 44 µM (inactive) | 4.54 µM (inactive) | > 100 µM (inactive) | 55.2 µM (inactive)
11 | O=C(c1ccncc1)n1nc(-c2ccccc2)c(/N=N/c2ccccc2[N+](=O)[O-])c1-c1ccccc1 | 34.7 µM (inactive) | 46.2 µM (inactive) | 36.3 µM (inactive) | – | – | 30 µM (inactive) | > 100 µM (inactive) | – | 82 µM (inactive) | 50.8 µM (inactive) | 36.9 µM (inactive) | 15.7 µM (inactive) | 36.6 µM (inactive) | 40.8 µM (inactive) | 9.62 µM (inactive) | 63.8 µM (inactive)
12 | C/C(CC(=O)Nc1cc(C)ccc1C)=N\NC(=O)c1ccncc1 | > 100 µM (inactive) | > 100 µM (inactive) | > 100 µM (inactive) | > 100 µM (inactive) | > 100 µM (inactive) | > 100 µM (inactive) | – | > 100 µM (inactive) | > 100 µM (inactive) | > 100 µM (inactive) | – | > 100 µM (inactive) | – | > 100 µM (inactive) | > 100 µM (inactive) | –
13 | C[N+](C)(C)CC(CC(=O)[O-])C1CC1 (stereo not drawn) | – | > 100 µM (inactive) | > 100 µM (inactive) | > 100 µM (inactive) | – | > 100 µM (inactive) | > 100 µM (inactive) | > 100 µM (inactive) | > 100 µM (inactive) | > 100 µM (inactive) | > 100 µM (inactive) | > 100 µM (inactive) | – | > 100 µM (inactive) | > 100 µM (inactive) | > 100 µM (inactive)
14 | O=c1c(-c2cccc3ccccc23)c(-c2cccc3ccccc23)c1=O | 0.979 µM (active) | 0.721 µM (active) | 0.161 µM (active) | 1.77 µM (inactive) | 2.32 µM (inactive) | 2.49 µM (inactive) | – | 24.7 µM (inactive) | 5.47 µM (inactive) | 1.38 µM (inactive) | 1.48 µM (inactive) | 0.2 µM (active) | 1.43 µM (inactive) | 4.25 µM (inactive) | 11.8 µM (inactive) | 2.91 µM (inactive)
15 | COC(=O)CC(NC(=O)OCc1ccccc1)C(C(=O)OCc1ccccc1)C1(C)OCCO1 (stereo not drawn) | 61.9 µM (inactive) | 21.1 µM (inactive) | 43.4 µM (inactive) | 28.9 µM (inactive) | 22.5 µM (inactive) | 26.4 µM (inactive) | 67.6 µM (inactive) | – | 50.1 µM (inactive) | 54.6 µM (inactive) | 50 µM (inactive) | 23.6 µM (inactive) | 19.1 µM (inactive) | 30.4 µM (inactive) | 18.2 µM (inactive) | –
16 | Cc1ccc(NC(=O)C(=O)CC(=O)C2CCOC2=O)c(C)c1 (stereo not drawn) | > 100 µM (inactive) | > 100 µM (inactive) | > 100 µM (inactive) | > 100 µM (inactive) | > 100 µM (inactive) | > 100 µM (inactive) | > 100 µM (inactive) | > 100 µM (inactive) | > 100 µM (inactive) | > 100 µM (inactive) | > 100 µM (inactive) | 76.2 µM (inactive) | – | > 100 µM (inactive) | > 100 µM (inactive) | > 100 µM (inactive)
17 | COc1cc(C(O)C(=O)c2cnc3cc([N+](=O)[O-])ccc3n2)ccc1O (stereo not drawn) | > 100 µM (inactive) | 86.5 µM (inactive) | > 100 µM (inactive) | 77.8 µM (inactive) | – | – | > 100 µM (inactive) | – | – | > 100 µM (inactive) | > 100 µM (inactive) | > 100 µM (inactive) | > 100 µM (inactive) | > 100 µM (inactive) | > 100 µM (inactive) | > 100 µM (inactive)
18 | COC1=C(C)C(=O)C2C(C1=O)C(c1ccc(OC)c(OC)c1)[C@H]2C (stereo partly drawn) | > 100 µM (inactive) | > 100 µM (inactive) | > 100 µM (inactive) | > 100 µM (inactive) | > 100 µM (inactive) | > 100 µM (inactive) | > 100 µM (inactive) | > 100 µM (inactive) | > 100 µM (inactive) | > 100 µM (inactive) | > 100 µM (inactive) | 72.8 µM (inactive) | > 100 µM (inactive) | – | 61.1 µM (inactive) | > 100 µM (inactive)
19 | C=C1C2CC(OC(C)=O)C3(C)C(c4ccoc4)OC(=O)[C@@H](O)[C@]13OC1C[C@H](OC(C)=O)C(C)(C)[C@H](C(O)C(=O)OC)[C@]12C (stereo partly drawn) | > 100 µM (inactive) | > 100 µM (inactive) | > 100 µM (inactive) | > 100 µM (inactive) | > 100 µM (inactive) | > 100 µM (inactive) | > 100 µM (inactive) | – | – | > 100 µM (inactive) | > 100 µM (inactive) | 29.9 µM (inactive) | – | – | > 100 µM (inactive) | –
